Data published in patent US20160194358A1, “LINEAR PEPTIDE ANTIBIOTCS” (priority 2013, published 2016).
Values after ≈ are worked out from the molar mass of the structure shown. Like-named read-outs stand apart in the source and are kept apart here. *1 amine or outer side, *2 acyl side, *3 side chain or, on linkers, in order; H or OH if unused. Where a SMILES comes first, the peptide text is derived from it. [ ]: non-standard residue; d: D form. The star is where a group is joined. boroAla((+)-pinanediol) = C[C@H](N*)B1O[C@@H]2C[C@@H]3C[C@@H](C3(C)C)[C@]2(C)O1; Biphenylcarbonyl(4'-Bu) = CCCCc1ccc(-c2ccc(C(=O)*)cc2)cc1; Benzoyl(4-(4-Cl-Ph)) = O=C(c1ccc(-c2ccc(Cl)cc2)cc1)*; Propanoyl(3-decylamino) = CCCCCCCCCCNCCC(=O)*; NH(2-(2-pyridyl)ethyl) = c1ccc(CCN*)nc1; X21 = O=S(=O)(c1ccc(-c2ccc(Cl)cc2)nc1)*; X32 = CCCCCCN1CCN([*:1])C(C(=O)[*:2])C1; X1 = C[C@H](N[*:1])C(=O)C(=O)[*:2]; X26 = CCCCCCCCc1ccc(C(=O)*)c(C)c1; X3 = CCCCc1ccc(C2CCN(*)CC2)cc1; boroAla = C[C@H](N*)B(O)O; Dab = NCC[C@H](N)C(=O)O; Dap = NC[C@H](N)C(=O)O; CO = O=C([*:1])[*:2]; CF3 = FC(F)(F)*; NHcPr = C1CC1N*; NHiPr = CC(C)N*

Key:
E. coli SPase = target: T1, E. coli SPase (Escherichia coli, UniProt P00803); experiment: Biochemical SPase activity assay, fluorogenic peptide substrate, E. coli enzyme; conditions: 20 μM substrate, 10 minutes preincubation, read-out: IC 50 (nM) E. coli
T1 construct: Full length His-tagged E. coli SPase proteins; His; made in house; host or cells: E. coli BL21(DE3)
Protocol: Full length His-tagged E. coli SPase proteins were expressed in E. coli BL21(DE3) containing the plasmid pET23-lepB. Briefly, saturated overnight cultures grown in 20 ml of Luria-Bertani medium supplemented with ampicillin were subcultures into 1.5 L of Luria-Bertani, and shaken at 37° C. until an optical density at 600 nm of 0.4-0.5 was achieved.
(§1) Signal peptidase enzyme activity of the above proteins was measured using two fluorogenic peptide substrates (decanoyl-LSSPAYNO2A ? ADKabzPD and decanoyl-LTPTAYNO2A ? ASKKabzDD), where abz is the fluorescence donor 2-aminobenzamide, YNO2 is the fluorescence acceptor 3-nitrotyrosine, and the cleavage site is indicated with an arrow. Enzyme mix solution was prepared by diluting 2.5 nM of Escherichia coli or Staphylococcus aureus SPase protein into reaction buffers consisting of 20 mM PO4 pH 7.4, 100 mM NaCl, and 1% Elugent™ or octyl phenoxypolyethoxylethanol detergent at a concentration of 0.25% or 0.0625%. Reactions were initiated by the addition of substrate to a final concentration of 20 μM. Reaction progress was monitored by measuring the increase in fluorescence signal (excitation at 314 nm, emission at 416 nm) using a SpectraMax M2 fluorescence microplate reader. To determine IC50 values of test compounds, compound stock solutions were prepared in DMSO at a concentration of 1 mM. Three-folder serial dilutions of test compounds, starting at 10 μM, were prepared in enzyme mix solution and incubated at room temperature for 10 minutes. Following this incubation, fluorogenic substrate was added to a final concentration of 20 μM and the increase in fluorescence, corresponding to substrate cleavage, was monitored continuously at room temperature for 1 hour. Initial reaction rates were calculated based on the rate of increase in fluorescence during the reaction. Reaction rates were plotted as a function of compound concentration, and IC50 values are determined nonlinear regression analysis (SoftMaxPro 5.4, Molecular Devices™) of the sigmoidal dose-response curve.

[1] = tested on: Escherichia coli strain MC4100 IMP-4213, which harbors an LptD mutation; conditions: E. coli MC4100 IMP-4213, 35° C., 22 hours
In short: (§2)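 CLSI broth microdilution in cation-adjusted Mueller Hinton Broth with 0.002% Tween-80, two-fold dilutions starting at 64 μg/ml.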

[2] = tested on: methicillin resistant Staphylococcus aureus (MRSA) strain USA300 (NRS384)
In short: as §2

S. aureus SPase = S. aureus SPase (Staphylococcus aureus, UniProt P0A070); experiment: biochemical; conditions: IC 50 (nM) S. aureus, 20 μM substrate, 10 minutes preincubation
Protocol: Full length His-tagged S. aureus SPase protein was expressed similarly from E. coli BL21(DE3) containing the plasmid pCDF1-SaSpsB and purified similarly to the E. coli protein with the following exceptions. SPase protein was solubilized using 300 mM NaCl, 20 mM Tris pH 8.06, 5 mM Imidazole, 10% glycerol, 1% Triton X-100, prior to purification in Ni-NTA Superflow resin and resin bound protein was washed in a similar buffer containing 1% Elugent in place of Triton X-100 prior to protein eluted in wash buffer supplemented with 300 mM imidazole. […] All protein concentrations were determined by BCA assay.
as §1

[3] = MRSA USA300 (NRS384), 35° C., 22 hours

S. aureus SPase, sequence (P0A070 whole entry): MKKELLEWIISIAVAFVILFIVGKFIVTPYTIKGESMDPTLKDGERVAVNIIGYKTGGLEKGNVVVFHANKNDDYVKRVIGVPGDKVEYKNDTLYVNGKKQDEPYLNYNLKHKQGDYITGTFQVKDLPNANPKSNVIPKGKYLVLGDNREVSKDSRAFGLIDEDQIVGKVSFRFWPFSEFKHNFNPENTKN
T1 sequence (P00803 whole entry): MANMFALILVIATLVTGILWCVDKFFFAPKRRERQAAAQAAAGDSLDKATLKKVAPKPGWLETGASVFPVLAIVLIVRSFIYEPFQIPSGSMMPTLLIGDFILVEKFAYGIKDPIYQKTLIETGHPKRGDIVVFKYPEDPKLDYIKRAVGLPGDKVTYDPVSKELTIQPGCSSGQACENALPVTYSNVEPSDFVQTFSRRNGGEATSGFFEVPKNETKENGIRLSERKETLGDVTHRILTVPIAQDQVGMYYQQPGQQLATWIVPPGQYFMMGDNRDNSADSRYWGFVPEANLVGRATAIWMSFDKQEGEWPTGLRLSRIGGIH

| Compound | IC50 (E. coli SPase) | IC50 (S. aureus SPase) | MIC (μg/mL) E. coli [1] | MIC (μg/mL) S. aureus [2, 3] | other results |
| --- | --- | --- | --- | --- | --- |
| CCCCc1ccc(-c2ccc(C(=O)N[C@@H](CCN)C(=O)N[C@H](C(=O)N[C@@H](C)C(=O)N[C@@H](CCCCN)C(=O)N[C@@H](C)C(=O)C3OC3C)[C@@H](C)O)cc2)cc1 (single isomer, unassigned) [Compound 203 P1] | 440 nM | 95 nM | – | – | MIC (μg/mL) E. coli ([1]; listed as 203 P1): 11 µg/mL (≈ 14.4 µM); MIC (μg/mL) S. aureus ([2]; MRSA USA300 (NRS384), 35° C., 22 hours, listed as 203 P1): 1.2 µg/mL (≈ 1.57 µM) |
| CCNC(=O)C(=O)[C@H](C)NC(=O)[C@H](CCCCN)NC(=O)[C@H](C)NC(=O)[C@@H](NC(=O)[C@H](CN)NC(=O)c1ccc(-c2ccc(Cl)cc2)cc1)[C@@H](C)O [Compound 102] ({Benzoyl(4-(4-Cl-Ph))}-[Dap]TAK[X1]-NHEt) | 440 nM | 580 nM | >64 µg/mL | 32 µg/mL (≈ 42.9 µM) | – |
| C[C@H](NC(=O)[C@@H](NC(=O)[C@H](CN)NC(=O)c1ccc(-c2ccc(Cl)cc2)cc1)[C@@H](C)O)C(=O)N[C@@H](CCCCN)C(=O)N[C@@H](C)C(=O)C(=O)NC1CC1 [Compound 109] ({Benzoyl(4-(4-Cl-Ph))}-[Dap]TAK[X1]-NHcPr) | 820 nM | 2000 nM | 32 µg/mL (≈ 42.3 µM) | 32 µg/mL (≈ 42.3 µM) | – |
| CC(C)NC(=O)C(=O)[C@H](C)NC(=O)[C@H](CCCCN)NC(=O)[C@H](C)NC(=O)[C@@H](NC(=O)[C@H](CN)NC(=O)c1ccc(-c2ccc(Cl)cc2)cc1)[C@@H](C)O [Compound 103] ({Benzoyl(4-(4-Cl-Ph))}-[Dap]TAK[X1]-NHiPr) | 1100 nM | 1400 nM | >64 µg/mL | >64 µg/mL | – |
| CCCCc1ccc(-c2ccc(C(=O)N[C@@H](CCN)C(=O)N[C@H](C(=O)N[C@@H](C)C(=O)N[C@@H](CCCCN)C(=O)N[C@@H](C)C(=O)C3(C)CO3)[C@@H](C)O)cc2)cc1 (single isomer, unassigned) [Compound 207 P2] | 9900 nM | 1300 nM | – | – | MIC (μg/mL) E. coli ([1]; listed as 207 P2): 32 µg/mL (≈ 41.8 µM); MIC (μg/mL) S. aureus ([2]; MRSA USA300 (NRS384), 35° C., 22 hours, listed as 207 P2): 32 µg/mL (≈ 41.8 µM) |
| CCCCc1ccc(-c2ccc(C(=O)N[C@@H](CCN)C(=O)N[C@H](C(=O)N[C@@H](C)C(=O)N[C@@H](CCCCN)C(=O)N[C@@H](C)C(=O)C(F)(F)F)[C@@H](C)O)cc2)cc1 [Compound 210] ({Biphenylcarbonyl(4'-Bu)}-[Dab]TAKA-CF3) | 260 nM | 2300 nM | 4 µg/mL (≈ 5.14 µM) | 11 µg/mL (≈ 14.1 µM) | – |
| C[C@H](NC(=O)[C@@H](NC(=O)[C@H](CN)NC(=O)c1ccc(-c2ccc(Cl)cc2)cc1)[C@@H](C)O)C(=O)N[C@@H](CCCCN)C(=O)N[C@@H](C)C(=O)C(=O)NCCc1ccccn1 [Compound 104] ({Benzoyl(4-(4-Cl-Ph))}-[Dap]TAK[X1]-{NH(2-(2-pyridyl)ethyl)}) | 950 nM | 840 nM | >64 µg/mL | 64 µg/mL (≈ 77.8 µM) | – |
| CCCCc1ccc(-c2ccc(C(=O)N[C@@H](CCN)C(=O)N[C@H](C(=O)N[C@@H](C)C(=O)N[C@@H](CCCCN)C(=O)N[C@@H](C)C(=O)C3OC3C)[C@@H](C)O)cc2)cc1 (single isomer, unassigned) [Compound 205 P1] | > 10000 nM | > 10000 nM | – | – | MIC (μg/mL) E. coli ([1]; listed as 205 P1): 32 µg/mL (≈ 41.8 µM); MIC (μg/mL) S. aureus ([2]; MRSA USA300 (NRS384), 35° C., 22 hours, listed as 205 P1): >64 µg/mL |
| CCCCCCCCCCCCCC(=O)N[C@@H](CCCCN)C(=O)N[C@@H](C)C(=O)N[C@@H](CCCCN)C(=O)N[C@@H](C)B1O[C@@H]2C[C@@H]3C[C@@H](C3(C)C)[C@]2(C)O1 [Compound 123] | 11000 nM | 7800 nM | 4 µg/mL (≈ 5.26 µM) | 2 µg/mL (≈ 2.63 µM) | – |
| CCCCc1ccc(C2CCN(C(=O)N[C@@H](CCCCN)C(=O)N[C@H](C(=O)N[C@@H](C)C(=O)N[C@@H](CCCCN)C(=O)N[C@@H](C)B3O[C@@H]4C[C@@H]5C[C@@H](C5(C)C)[C@]4(C)O3)[C@@H](C)O)CC2)cc1 [Compound 127] ({X3-CO}-KTAK-{boroAla((+)-pinanediol)}) | 64 nM | 210 nM | 32 µg/mL (≈ 35.8 µM) | 2 µg/mL (≈ 2.23 µM) | – |
| COC(=O)CNC(=O)C(=O)[C@H](C)NC(=O)[C@H](CCCCN)NC(=O)[C@H](C)NC(=O)[C@@H](NC(=O)[C@H](CN)NC(=O)c1ccc(-c2ccc(Cl)cc2)cc1)[C@@H](C)O [Compound 111] ({Benzoyl(4-(4-Cl-Ph))}-[Dap]TAK[X1]G-OMe) | 360 nM | 690 nM | 16 µg/mL (≈ 20.3 µM) | 16 µg/mL (≈ 20.3 µM) | – |
| CCCCCCCCc1ccc(C(=O)N[C@@H](CCN)C(=O)N[C@H](C(=O)N[C@@H](C)C(=O)N[C@@H](CCCCN)C(=O)N[C@@H](C)B2O[C@@H]3C[C@@H]4C[C@@H](C4(C)C)[C@]3(C)O2)[C@@H](C)O)c(C)c1 [Compound 273] (X26-[Dab]TAK-{boroAla((+)-pinanediol)}) | – | – | 0.13 µg/mL (≈ 0.152 µM) | 0.13 µg/mL (≈ 0.152 µM) | – |
| C[C@H](NC(=O)[C@H](CCCCN)NC(=O)[C@H](C)NC(=O)[C@@H](NC(=O)[C@H](CCN)NS(=O)(=O)c1ccc(-c2ccc(Cl)cc2)nc1)[C@@H](C)O)B1O[C@@H]2C[C@@H]3C[C@@H](C3(C)C)[C@]2(C)O1 [Compound 234] (X21-[Dab]TAK-{boroAla((+)-pinanediol)}) | – | – | 32 µg/mL (≈ 36.6 µM) | 16 µg/mL (≈ 18.3 µM) | – |
| CCCCCCN1CCNC(C(=O)N[C@@H](CCCCN)C(=O)N[C@H](C(=O)N[C@@H](C)C(=O)N[C@@H](CCCCN)C(=O)N[C@@H](C)B2O[C@@H]3C[C@@H]4C[C@@H](C4(C)C)[C@]3(C)O2)[C@@H](C)O)C1 (stereo partly drawn) [Compound 280] (H-[X32]KTAK-{boroAla((+)-pinanediol)}) | – | – | >64 µg/mL | 64 µg/mL (≈ 75.5 µM) | – |
| CCCCCCCCc1ccc(C(=O)N[C@@H](CCCCN)C(=O)N[C@H](C(=O)N[C@@H](C)C(=O)N[C@@H](CCCCN)C(=O)N[C@@H](C)B2O[C@@H]3C[C@@H]4C[C@@H](C4(C)C)[C@]3(C)O2)[C@@H](C)O)c(C)c1 [Compound 274] (X26-KTAK-{boroAla((+)-pinanediol)}) | – | – | 0.5 µg/mL (≈ 0.567 µM) | 0.13 µg/mL (≈ 0.147 µM) | – |
| CCCCCCCCCCNCCC(=O)N[C@@H](CN)C(=O)N[C@H](C(=O)N[C@@H](C)C(=O)N[C@@H](CC(N)=O)C(=O)N[C@@H](C)B(O)O)[C@@H](C)O [Compound 222] ({Propanoyl(3-decylamino)}-[Dap]TAN-boroAla) | – | – | 8 µg/mL (≈ 11.9 µM) | – | MIC (μg/mL) S. aureus ([2]; USA300, 22 h): 2 µg/mL (≈ 2.97 µM) |
